Results reported in patent US20220047617A1, “Nucleic acid nanocarrier drug, preparation method, pharmaceutical composition and use thereof” (BAI YAO ZHI DA (BEIJING) NANOBIO TECHNOLOGY CO., LTD., priority 2018, published 2022).

B1: R-20: extension fragment deformation+core short-sequence RNA nanoparticles, strands SEQ ID NO: 135-137, a-strand 3′-biotin, 2′F (nucleic acid)
chain 1: GCGGCGAGCGGCGACGAGCGUUGCGGCCGGAGGCCGG
chain 2: CCGGCCUCCGGCCGCUUCGCCGCCAGCCGCC
chain 3: GGCGGCAGGCGGCCAUAGCCGUCGCCGCUCGCCGC
modifications: RNA nanoparticle strands, 2'-fluoro modified, a-strand 3'-biotin, positions not given here

Key:
U87MG cells = assay: Cytotoxicity in U87MG cells (CellTiter-Glo), Embodiment 8; assay type: cell-based
Method: Cytotoxicity Research of RNAh-Bio-670-Paclitaxel Nanoparticles in U87MG Cells
1) Cell Culturing and Plating
U87MG cells are cultured at 37 DEG C. and 5% CO2 in the EMEM basal medium in which 10% FBS and 1% PS are respectively added. The cell density used in the experiment is above 80%. The cells are collected, and centrifuged at 1000 rpm for 4 minutes, the medium is resuspended, the cell concentration is adjusted, and it is added to the 96-well plate in a volume of 5000 cells per 90 μL, and each group has 4 replicate wells.
2) Gradient Drug Concentration Preparation and Administration […]
Medium (untreated) control: only cells without compound treatment
Blank control: without cells, used for instrument zero calibration
3) Cell Culture after Administration
4) Cells Treated by Detection Kit
The well plate is brought to a room temperature in advance and stands for 30 minutes. 100 μL of a CellTiter-Glo® reagent is added to each well of the well plate and mixed for 2 minutes on a shaker to promote cell lysis. The Perkin Elmer Envision 2104 Multilabel Reader is used to read values and the values are recorded.
5) Experiment Data Acquisition and Processing
The acquired experiment data is analyzed and processed by using excel software, and GraphPad Prism 5 software is used for curve fitting analysis.

SKOV3 cells = assay: Cytotoxicity in SKOV3 cells (CellTiter 96 AQueous One Solution), Embodiment 9; assay type: cell-based; conditions: Homo sapiens, SK-OV-3; SKOV3, 96 hours
Method: 2) adjusting the cell density to 2.22×10^4/mL with a growth medium;
3) planting 90 μL/well of cell suspension into the 96-well plate, herein the number of cells per well in the plate is 2000;
4) placing the planted cell plate in the incubator at 37 DEG C. and incubating overnight;
5) performing 3.16-fold gradient dilution on the compound at 9 concentration points;
7) placing the cell culture plate in the incubator and continuously incubating for 96 hours;
8) placing the CellTiter 96® AQueous One Solution reagent at the room temperature and thawing for 90 minutes or thawing in a water bath at 37 DEG C., and placing at the room temperature and equilibrating for 30 minutes;
9) adding 20 μL/well of the CellTiter 96® AQueous One Solution reagent to the cell culture plate;
10) placing the cell culture plate in the incubator at 37 DEG C. and continuously incubating for 3 hours;
11) using a microplate reader to read a OD490 value of each well in the cell plate; and 12) data processing and analysis.
GraphPad Prism 5.0 software is used to process data graphically. In order to calculate the IC50, “S”-shaped nonlinear regression analysis is performed on the data to match an appropriate dosage-effect curve. A calculation formula of the survival rate is as follows, the IC50 may be automatically calculated in GraphPad Prism 5.0. […]

[1] = Particle size measurement (DLS hydrodynamic size); assay type: physicochemical
From the text: (3) Particle Size Measurement
1. Preparing a potential sample (conventional-sequence DNA self-assembly product D-7) and putting into a sample pool, opening a sample pool cover of an instrument, and placing the instrument;
2. opening software, and clicking a menu, so a manual measurement parameter setting dialog box appears;
3. setting a software detection parameter; and then
4. clicking Ok to complete the settings, when a measurement dialog box appears, clicking Start to start, a DLS measurement value result of a hydrodynamic size of the self-assembly product D-7 is shown below in Table 40:
(3) Particle size measurement
(2) opening software, and clicking a menu, so a manual measurement parameter setting dialog box appears;
(3) setting a software detection parameter; and then

[2] = TM value detection by solubility curve method (SYBR Green I); assay type: physicochemical; conditions: extension fragment deformation+core short-sequence RNA nanoparticles; temperature at ½ RFUmax in 20 to 90 DEG C. taken as Tm
Method: A solubility curve method is used to detect TM values of the 7 groups of the extension fragment deformation+core short-sequence RNA nanoparticles, and the samples are consistent with the potential samples.
(1) After the sample is diluted with ultrapure water, 5 μg of the diluted sample is mixed with 2 μL of SYBR Green I dye (diluted by 1:200), a final volume is 20 μL, and the dilution concentration is as follows:
(2) It is incubated for 30 min in the dark at a room temperature; and
(3) On-machine detection is performed, a program is set to start at 20 DEG C., the temperature rises per second from 0.1 DEG C. to 95 DEG C., and reading is performed every 5 s.
Due to the particularity of the RNA samples, a temperature corresponding to ½ RFUmax in a range of 20 to 90 DEG C. is used as a sample Tm value in this test.
A solubility curve method is used to detect TM values of the 7 groups of the extension fragment deformation+core short-sequence DNA nanoparticles, and the samples are consistent with the potential samples.

Molecule	inhibition rates of the drugs to the cells (U87MG cells; drug concentration is 10 μM) [%]	cell survival rate (%) (U87MG cells; treatment time 72 h, 200 nM of each sample per well (method))	IC50 (SKOV3 cells) [nM]	Mean particle size (nm) [1] [nm]	TM value [2] [°C]
CC(=O)O[C@H]1C(=O)[C@@]2(C)[C@H]([C@H](OC(=O)c3ccccc3)[C@]3(O)C[C@H](OC(=O)[C@H](O)[C@@H](NC(=O)c4ccccc4)c4ccccc4)C(C)=C1C3(C)C)[C@]1(OC(C)=O)CO[C@@H]1C[C@@H]2O [Paclitaxel, paclitaxel]	23.77	56.74	< 1	–	–
B1	–	–	–	7.110	59.5
